The record followed here is patent US12540118B2, “Dendrene amide compound, bactericide and use thereof” (Jiangsu Flag Chemical Industry Co., Ltd., priority 2020, dated 2026).

Some results are limits rather than exact numbers.

One assay relates to Sphaerotheca fuliginea. Kind of assay: Sphaerotheca fuliginea potting method. It counts as in vivo. Conditions: Podosphaera fuliginea; 100 mg/L; read-out: Sphaerotheca fuliginea control rating. As for the experimental part:
The fungicidal activity of the control agents and target compounds are determined. The test and investigation method refers to SOP-SC-1101 sphaerotheca fuliginea potting method in disinfectant rolls written by KANGZHUO and GUBAOGEN in “Standard operation specification for testing biological activity of pesticides”.
For the compound `Cc1ccc(C(=C(Cl)Cl)C(C)N(C(=O)c2c(C(F)F)nn(C)c2F)C2CC2)c(C)c1` (stereo not drawn) [Compound 193], the pest or weed control at 100 µg/mL was 80 to 100%.
Turning to `Cc1ccc(C(CN(C(=O)c2c(C(F)F)nn(C)c2F)C2CC2)=C(Cl)Cl)cc1` [Compound 150], the pest or weed control at 100 µg/mL lay within 80 to 100%.
As to `C=C(CN(C(=O)c1c(C(F)F)nn(C)c1F)C1CC1)c1cccc(C(F)(F)F)c1Cl` [Compound 46], the pest or weed control at 100 µg/mL was 80 to 100%.
Consider `Cn1nc(C(F)F)c(C(=O)N(CC(=C(Cl)Cl)c2cccc(C(F)(F)F)c2Cl)C2CC2)c1F` [Compound 157], for which the pest or weed control at 100 µg/mL is 80 to 100%.
On to `C=C(CN(C(=O)c1c(C(F)F)nn(C)c1F)C1CC1)c1cccc(Br)c1` [Compound 5], for which the pest or weed control at 100 µg/mL was less than 70%.
The same measure, in the same setting: to `C=C(CN(C(=O)c1c(C(F)F)nn(C)c1F)C1CC1)c1c(Br)cc(Br)cc1Br` [Compound 31] belongs 80 to 100%; to `C=C(c1cc(C(F)(F)F)ccc1Cl)C(C)N(C(=O)c1c(C(F)F)nn(C)c1F)C1CC1` (stereo not drawn) [Compound 100], 80 to 100%; to `C=C(c1cc(S(C)(=O)=O)ccc1Cl)C(C)N(C(=O)c1c(C(F)F)nn(C)c1F)C1CC1` (stereo not drawn) [Compound 106], 80 to 100%.
As to `Cn1nc(C(F)F)c(C(=O)N(CC(=C(Cl)Cl)c2cc(Br)ccc2Br)C2CC2)c1F` [Compound 135], the pest or weed control at 100 µg/mL is 80 to 100%.
The same measure, in the same setting: to `Cc1ccccc1C(=C(Cl)Cl)C(C)N(C(=O)c1c(C(F)F)nn(C)c1F)C1CC1` (stereo not drawn) [Compound 202] belongs 80 to 100%.
Same read-out and setting: then `Cc1cc(C(C)C)ccc1C(=C(Cl)Cl)C(C)N(C(=O)c1c(C(F)F)nn(C)c1F)C1CC1` (stereo not drawn) [Compound 201], with 80 to 100%; and `C=C(c1ccc(S(=O)(=O)CC)cc1)C(C)N(C(=O)c1c(C(F)F)nn(C)c1F)C1CC1` (stereo not drawn) [Compound 107], with 80 to 100%; and `C=C(c1ccc(S(C)(=O)=O)cc1Cl)C(C)N(C(=O)c1c(C(F)F)nn(C)c1F)C1CC1` (stereo not drawn) [Compound 103], with 80 to 100%.
On the same count and under the same terms, then `CC(C(=C(Cl)Cl)c1cc(Cl)ccc1F)N(C(=O)c1c(C(F)F)nn(C)c1F)C1CC1` (stereo not drawn) [Compound 208], with 80 to 100%.
For the compound `C=C(c1ccc(Cl)c(Cl)c1)C(C)N(C(=O)c1c(C(F)F)nn(C)c1F)C1CC1` (stereo not drawn) [Compound 65], the pest or weed control at 100 µg/mL was in the range of 80 to 100%.
The same measure, in the same setting: to `Cn1nc(C(F)F)c(C(=O)N(CC(=C(Cl)Cl)c2ccc(C#CC3CC3)cc2Cl)C2CC2)c1F` [Compound 165] belongs 80 to 100%; to `Cc1ccc(C(C)(C)C)c(C(=C(Cl)Cl)C(C)N(C(=O)c2c(C(F)F)nn(C)c2F)C2CC2)c1` (stereo not drawn) [Compound 199], 80 to 100%; to `C=C(c1cc(C)ccc1C(C)(C)C)C(C)N(C(=O)c1c(C(F)F)nn(C)c1F)C1CC1` (stereo not drawn) [Compound 94], 80 to 100%.

For a further assay, the target named is T1, succinate dehydrogenase (Sus scrofa, UniProt A5GZW8+D0VWV4+Q007T0).
T1 construct: isolated from porcine hearts; from tissue; host or cells: porcine heart
T1 sequence (Q0QF01 43-664 partner): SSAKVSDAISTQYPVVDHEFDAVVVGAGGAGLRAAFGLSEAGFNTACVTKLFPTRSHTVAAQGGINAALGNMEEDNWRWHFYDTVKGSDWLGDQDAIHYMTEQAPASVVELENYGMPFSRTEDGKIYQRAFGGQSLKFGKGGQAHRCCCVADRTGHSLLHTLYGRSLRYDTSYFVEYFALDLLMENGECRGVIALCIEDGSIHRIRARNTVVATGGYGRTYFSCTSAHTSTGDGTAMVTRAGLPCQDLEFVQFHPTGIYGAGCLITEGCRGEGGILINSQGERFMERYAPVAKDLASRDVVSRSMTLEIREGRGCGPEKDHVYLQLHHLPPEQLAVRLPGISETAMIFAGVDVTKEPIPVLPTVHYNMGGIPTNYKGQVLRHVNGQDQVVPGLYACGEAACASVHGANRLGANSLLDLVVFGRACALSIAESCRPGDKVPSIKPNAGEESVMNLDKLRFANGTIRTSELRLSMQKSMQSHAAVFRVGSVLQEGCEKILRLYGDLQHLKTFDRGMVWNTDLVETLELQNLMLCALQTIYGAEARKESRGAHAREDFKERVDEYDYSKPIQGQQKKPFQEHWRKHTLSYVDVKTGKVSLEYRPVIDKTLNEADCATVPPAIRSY
T1 sequence (Q007T0 29-280): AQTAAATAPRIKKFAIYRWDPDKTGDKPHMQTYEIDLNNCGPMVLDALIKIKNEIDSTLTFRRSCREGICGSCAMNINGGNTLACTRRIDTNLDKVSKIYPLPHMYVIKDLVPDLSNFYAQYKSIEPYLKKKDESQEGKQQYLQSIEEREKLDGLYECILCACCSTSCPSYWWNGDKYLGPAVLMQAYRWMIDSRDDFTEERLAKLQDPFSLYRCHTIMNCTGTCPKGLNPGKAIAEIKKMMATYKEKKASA
T1 sequence (D0VWV4 30-169): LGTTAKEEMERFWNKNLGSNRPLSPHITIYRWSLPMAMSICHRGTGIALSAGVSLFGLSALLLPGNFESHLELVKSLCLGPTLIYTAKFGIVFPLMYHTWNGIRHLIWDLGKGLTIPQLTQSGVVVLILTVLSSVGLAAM
T1 sequence (A5GZW8 57-159 limits assumed): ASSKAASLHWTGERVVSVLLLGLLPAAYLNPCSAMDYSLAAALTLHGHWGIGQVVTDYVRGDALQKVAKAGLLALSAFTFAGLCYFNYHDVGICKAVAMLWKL
In words: Enzyme activity assay, succinate dehydrogenase (DCIP reduction). Type of assay: biochemical, porcine. Conditions: read-out: Inhibitors (10 μM, SQR). In outline:
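Porcine heart succinate dehydrogenase (2 nM) in 100 mM sodium phosphate pH 7.4, 0.3 mM EDTA, 20 mM sodium succinate and 53 μM DCIP at 23° C with stirring. DCIP reduction followed at 600 nm (ε 21 mM^−1 cm^−1); linear slope minus baseline gives initial rate.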
As to `Cc1ccc(C(=C(Cl)Cl)C(C)N(C(=O)c2c(C(F)F)nn(C)c2F)C2CC2)c(C)c1` (stereo not drawn) [Compound 193], the inhibition at 10 µM was greater than 90%.
Consider `Cc1ccc(C(CN(C(=O)c2c(C(F)F)nn(C)c2F)C2CC2)=C(Cl)Cl)cc1` [Compound 150], for which the inhibition at 10 µM was greater than 90%.
On the same count and under the same terms, to `C=C(CN(C(=O)c1c(C(F)F)nn(C)c1F)C1CC1)c1cccc(C(F)(F)F)c1Cl` [Compound 46] belongs greater than 90%; to `Cn1nc(C(F)F)c(C(=O)N(CC(=C(Cl)Cl)c2cccc(C(F)(F)F)c2Cl)C2CC2)c1F` [Compound 157], greater than 90%.
As to `C=C(CN(C(=O)c1c(C(F)F)nn(C)c1F)C1CC1)c1cccc(Br)c1` [Compound 5], the inhibition at 10 µM is greater than 90%.
Take `C=C(CN(C(=O)c1c(C(F)F)nn(C)c1F)C1CC1)c1c(Br)cc(Br)cc1Br` [Compound 31]: the inhibition at 10 µM is greater than 90%.
Turning to `C=C(c1cc(C(F)(F)F)ccc1Cl)C(C)N(C(=O)c1c(C(F)F)nn(C)c1F)C1CC1` (stereo not drawn) [Compound 100], the inhibition at 10 µM is greater than 90%.
Turning to `C=C(c1cc(S(C)(=O)=O)ccc1Cl)C(C)N(C(=O)c1c(C(F)F)nn(C)c1F)C1CC1` (stereo not drawn) [Compound 106], the inhibition at 10 µM was greater than 90%.
The same measure, in the same setting: to `Cn1nc(C(F)F)c(C(=O)N(CC(=C(Cl)Cl)c2cc(Br)ccc2Br)C2CC2)c1F` [Compound 135] belongs greater than 90%.
On the same count and under the same terms, to `Cc1ccccc1C(=C(Cl)Cl)C(C)N(C(=O)c1c(C(F)F)nn(C)c1F)C1CC1` (stereo not drawn) [Compound 202] belongs greater than 90%; to `Cc1cc(C(C)C)ccc1C(=C(Cl)Cl)C(C)N(C(=O)c1c(C(F)F)nn(C)c1F)C1CC1` (stereo not drawn) [Compound 201], greater than 90%; to `C=C(c1ccc(S(=O)(=O)CC)cc1)C(C)N(C(=O)c1c(C(F)F)nn(C)c1F)C1CC1` (stereo not drawn) [Compound 107], greater than 90%.
Still for that read-out and setting: to `C=C(c1ccc(S(C)(=O)=O)cc1Cl)C(C)N(C(=O)c1c(C(F)F)nn(C)c1F)C1CC1` (stereo not drawn) [Compound 103] belongs greater than 90%.
`CC(C(=C(Cl)Cl)c1cc(Cl)ccc1F)N(C(=O)c1c(C(F)F)nn(C)c1F)C1CC1` (stereo not drawn) [Compound 208]: the inhibition at 10 µM was greater than 90%.
On the same count and under the same terms, to `C=C(c1ccc(Cl)c(Cl)c1)C(C)N(C(=O)c1c(C(F)F)nn(C)c1F)C1CC1` (stereo not drawn) [Compound 65] belongs greater than 90%.
The same measure, in the same setting: then `Cn1nc(C(F)F)c(C(=O)N(CC(=C(Cl)Cl)c2ccc(C#CC3CC3)cc2Cl)C2CC2)c1F` [Compound 165], with greater than 90%; and `Cc1ccc(C(C)(C)C)c(C(=C(Cl)Cl)C(C)N(C(=O)c2c(C(F)F)nn(C)c2F)C2CC2)c1` (stereo not drawn) [Compound 199], with greater than 90%.
The same measure, in the same setting: to `C=C(c1cc(C)ccc1C(C)(C)C)C(C)N(C(=O)c1c(C(F)F)nn(C)c1F)C1CC1` (stereo not drawn) [Compound 94] belongs greater than 90%.

A further assay has as its system Erysiphe graminis. In words: Erysiphe graminis potting method. It counts as in vivo. The settings on record: Blumeria graminis; 100 mg/L; read-out: Erysiphe graminis control rating. As for the experimental part:
The fungicidal activity of the control agents and target compounds are determined. The test and investigation method refers to SOP-SC-1116 Erysiphe graminis potting method in disinfectant rolls written by KANGZHUO and GUBAOGEN in “Standard operation specification for testing biological activity of pesticides”.
As for `Cc1ccc(C(=C(Cl)Cl)C(C)N(C(=O)c2c(C(F)F)nn(C)c2F)C2CC2)c(C)c1` (stereo not drawn) [Compound 193], the pest or weed control at 100 µg/mL lay in the range of 80 to 100%.
Still for that read-out and setting: then `Cc1ccc(C(CN(C(=O)c2c(C(F)F)nn(C)c2F)C2CC2)=C(Cl)Cl)cc1` [Compound 150], with 80 to 100%.
Still for that read-out and setting: to `C=C(CN(C(=O)c1c(C(F)F)nn(C)c1F)C1CC1)c1cccc(C(F)(F)F)c1Cl` [Compound 46] belongs 80 to 100%; to `Cn1nc(C(F)F)c(C(=O)N(CC(=C(Cl)Cl)c2cccc(C(F)(F)F)c2Cl)C2CC2)c1F` [Compound 157], 80 to 100%; to `C=C(CN(C(=O)c1c(C(F)F)nn(C)c1F)C1CC1)c1cccc(Br)c1` [Compound 5], 80 to 100%.
As for `C=C(CN(C(=O)c1c(C(F)F)nn(C)c1F)C1CC1)c1c(Br)cc(Br)cc1Br` [Compound 31], the pest or weed control at 100 µg/mL was in the range of 80 to 100%.
As to `C=C(c1cc(C(F)(F)F)ccc1Cl)C(C)N(C(=O)c1c(C(F)F)nn(C)c1F)C1CC1` (stereo not drawn) [Compound 100], the pest or weed control at 100 µg/mL fell in the range of 80 to 100%.
On to `C=C(c1cc(S(C)(=O)=O)ccc1Cl)C(C)N(C(=O)c1c(C(F)F)nn(C)c1F)C1CC1` (stereo not drawn) [Compound 106], for which the pest or weed control at 100 µg/mL was 80 to 100%.
Consider `Cn1nc(C(F)F)c(C(=O)N(CC(=C(Cl)Cl)c2cc(Br)ccc2Br)C2CC2)c1F` [Compound 135], for which the pest or weed control at 100 µg/mL was in the range of 80 to 100%.
As for `Cc1ccccc1C(=C(Cl)Cl)C(C)N(C(=O)c1c(C(F)F)nn(C)c1F)C1CC1` (stereo not drawn) [Compound 202], the pest or weed control at 100 µg/mL fell in the range of 80 to 100%.
Still for that read-out and setting: then `Cc1cc(C(C)C)ccc1C(=C(Cl)Cl)C(C)N(C(=O)c1c(C(F)F)nn(C)c1F)C1CC1` (stereo not drawn) [Compound 201], with 80 to 100%.
`C=C(c1ccc(S(=O)(=O)CC)cc1)C(C)N(C(=O)c1c(C(F)F)nn(C)c1F)C1CC1` (stereo not drawn) [Compound 107]: the pest or weed control at 100 µg/mL lay within 80 to 100%.
Same read-out and setting: to `C=C(c1ccc(S(C)(=O)=O)cc1Cl)C(C)N(C(=O)c1c(C(F)F)nn(C)c1F)C1CC1` (stereo not drawn) [Compound 103] belongs 80 to 100%; to `CC(C(=C(Cl)Cl)c1cc(Cl)ccc1F)N(C(=O)c1c(C(F)F)nn(C)c1F)C1CC1` (stereo not drawn) [Compound 208], 80 to 100%; to `C=C(c1ccc(Cl)c(Cl)c1)C(C)N(C(=O)c1c(C(F)F)nn(C)c1F)C1CC1` (stereo not drawn) [Compound 65], 80 to 100%.
Take `Cn1nc(C(F)F)c(C(=O)N(CC(=C(Cl)Cl)c2ccc(C#CC3CC3)cc2Cl)C2CC2)c1F` [Compound 165]: the pest or weed control at 100 µg/mL was 80 to 100%.
Still for that read-out and setting: to `Cc1ccc(C(C)(C)C)c(C(=C(Cl)Cl)C(C)N(C(=O)c2c(C(F)F)nn(C)c2F)C2CC2)c1` (stereo not drawn) [Compound 199] belongs 80 to 100%; to `C=C(c1cc(C)ccc1C(C)(C)C)C(C)N(C(=O)c1c(C(F)F)nn(C)c1F)C1CC1` (stereo not drawn) [Compound 94], 80 to 100%.
